Patent publication US20150051210A1, “Tyrosine Kinase Inhibitor Combinations and their Use” (Novartis AG, priority 2012, published 2015)

How the values were obtained:
Format in all cases: cell-based
[1] = tested on: phosphorylation of MET, FRS2, ERK, AKT in RT-112; experiment: Western blots of protein phosphorylation in RT-112 cells
Procedure: Western Blots (Figures not Shown) MKN-45 and RT-112 cells were treated in 6-well plates for 2 hours and 18 hours in the presence or absence of purified protein (rhFGF7, rhNRG1-31, or rhHGF), and/or inhibitor (Cpd. B, Cpd. A, BGJ398). Following wash with ice-cold PBS, cells were lysed with RIPA buffer (Thermo) containing phosphatase (Thermo) and proteinase (Roche) inhibitor cocktails. Total protein was quantified by bicinchoninic protein assay (Pierce). Aliquots of 20 μg were resolved by electrophoresis on NuPAGE SDS-PAGE 4-12% BIS-Tris gels before transfer to nitrocellulose membranes. Membranes were blocked for one hour at room temperature before overnight incubation at 4° C. with the following primary antibodies (source rabbit, 1:1000 final dilution): anti-phospho-Akt (Ser473), anti-phospho-MET (Tyr1234/1235), anti-phospho-MAPK/ERK(1/2) (Thr202/Tyr204), anti-AKT, anti-MAPK/Erk(1/2), and anti-α/β-Tubulin . Anti-MET was probed at 1:800 final dilution An internal antibody was used for phospho-FRS2(Y346) (1:1500 dilution). Membranes were then washed 3 times in PBS+0.1% Tween before addition of secondary antibody, IRDye 680LT goat anti-rabbit IgG , dilution 1:15000. After one hour at room temperature, membranes were washed and bands were visualized using an Odyssey Infrared Imager.

MKN-45 cells = experiment: MKN-45 Dual Inhibition: reversal of rescue with selective inhibitors, CellTiter-Glo cell viability; conditions: for activity on cell viability (reversal of rescue): MET-dependent MKN-45, rhFGF7 or rhNRG-1 250 ng/ml, 96 h, Cpd. A/Cpd. B 100 nM, BGJ398 500 nM, Lapatinib 1.5 μM, FIG. 3, FIG. 4
Procedure: MKN-45 Secretome screen: MKN-45 cells were plated in white, tissue-culture treated 384-well plates (Greiner) at 3000 cells/20 μl DMEM +10% FBS/well and allowed to attach overnight. Supernatant from library-transfected HEK293T/17 cells was then transferred to the MKN-45 cells at 30 μl/well using a Biomek FX liquid handler (Beckman Coulter) with pipetting speeds reduced to minimize disturbance of the HEK293T/17 monolayer. As positive controls, the purified proteins rhEGF and rhNRG1-31 (R&D Systems) were added to isolated wells on each plate for a final concentration of 150 ng/ml; supernatant from mock-transfected HEK293T/17 wells were transferred as neutral controls. Following addition of supernatants and purified protein controls, Cpd. A diluted in DMEM was added at 10 μl/well for a final assay concentration of 100 nM. After 96 hours incubation, growth was measured using the CellTiter-Glo luminescent cell viability assay system (Promega). In brief, 30 μl CellTiter-Glo reagent was added to all wells, then incubated for 15 minutes at room temperature before reading luminescence on a Viewlux plate reader (Perkin Elmer). (FIG. 1)
MKN-45 Dual Inhibition: MKN-45 cells were seeded at 3000 cells/20 μl/well in 384-well plates and incubated overnight. Solutions of rhFGF7 and rhNRG-1 were prepared in DMEM+10%FBS, then added at 30 μl/well to achieve a final concentration of 250 ng/ml (one purified protein per treatment). The following single and dual inhibition treatments were prepared in DMEM and added at […]: Cpd. A, Cpd. B, BGJ398, Lapatinib, Cpd. A and BGJ398, Cpd. B and BGJ398, Cpd. A and Lapatinib, Cpd. B and Lapatinib. Final concentrations for each compound, whether single or combined, were as follows: 100 nM for Cpd. A and Cpd. B, 500 nM for BGJ398 and 1.5 μM for Lapatinib. After 96 hours cell viability was measured by CellTiter-Glo as previously described. (FIG. 3, FIG. 4)

RT-112 cells = experiment: RT-112 Dual Inhibition: reversal of rescue with selective inhibitors, CellTiter-Glo cell viability; conditions: RT-112, rhHGF or rhNRG-1 250 ng/ml, 96 h; BGJ398 100 nM, Cpd. A/Cpd. B 500 nM, Lapatinib 1.5 μM; FIG. 5, FIG. 6
Procedure: RT-112 Secretome screen: The basic format was identical to the MKN-45 secretome screen with slight modifications. RT-112 cells were plated in EMEM+10% in white, tissue-culture treated 384-well plates at 1000 cells/20 μl/well and allowed to attach overnight. Supernatant from library-transfected HEK293T/17 cells was transferred as described above for the MKN-45 secretome screen. Purified proteins rhNRG1-31 and rhTGFα were added as positive controls, at a final concentration of 150 ng/ml. Following addition of supernatants and purified protein controls, BGJ398 diluted in DMEM was added at 10 μl/well for a final assay concentration of 100 nM. Cell viability was measured after 72 hours using CellTiter-Glo as described above. (FIG. 2)
RT-112 Dual Inhibition: The format for the RT-112 dual inhibition experiment was similar to that described for MKN-45 with the following modifications. RT-112 cells were plated at 1000 cells/20 μl/well. Solutions of rhHGF and rhNRG-1 were added to achieve a final concentration of 250 ng/ml. Single and dual inhibition conditions were prepared as follows: BGJ398, Cpd. A, Cpd. B, Lapatinib, BGJ398 and Cpd. A, BGJ398 and Cpd. B, BGJ398 and Lapatinib. Final concentrations for each compound, whether single or combined, were as follows: 100nM for BGJ398, 500 nM for Cpd. A and Cpd. B, and 1.5 μM for Lapatinib. After 96 hours cell viability was measured by CellTiter-Glo as previously described. (FIG. 5, FIG. 6).

SMILES | FRS2 and ERK phosphorylation ([1]; RT-112, absence of ligands) | activity on cell viability (reversal of rescue) (MKN-45 cells) | reversal of ligand-mediated rescue of proliferation (MKN-45 cells; MKN-45 in presence of MET inhibitor Cpd. A or Cpd. B, FIGS. 3, 4) | activity on cell viability (reversal of rescue) (RT-112 cells) | prevention of HGF rescue of ERK phosphorylation ([1]; RT-112, BGJ398 plus HGF, simultaneous addition) | MET phosphorylation ([1]; RT-112, absence of ligands)
CCN1CCN(c2ccc(Nc3cc(N(C)C(=O)Nc4c(Cl)c(OC)cc(OC)c4Cl)ncn3)cc2)CC1 [BGJ398, 3-(2,6-dichloro-3,5-dimethoxy-phenyl)-1-{6-[4-(4-ethylpiperazin-1-yl)-phenylamino]-pyrimidin-4-yl}-1-methyl-urea] | reduced both FRS2 and ERK phosphorylation | not sufficient | selectively reverse rescue mediated by FGF7 | active |  | 
CNC(=O)c1ccc(-c2cnc3ncc(Cc4ccc5ncccc5c4)n3n2)cc1F [Cpd. B, 2-fluoro-N-methyl-4-[(7-quinolin-6-yl-methyl)-imidazo[1,2-b]triazin-2-yl]benzamide] |  | active |  | not sufficient | prevented this rescue effect | specifically inhibited MET phosphorylation
